The values below come from the supplement of paper PMC11208160.
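Note: IS621 recombinase and bridge RNA in Escherichia coli cells.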

A short description of the data set: recombinant barcode read abundance after kanamycin selection (control-corrected) (log10(CPM+1)); higher = more efficient recombination; sequences stand for … in AGTGCAGAGAAAATCGGCCAGTTTTCTCTGCCTGCAGTCCGCATGCCGT…AGATTTATGCAGCGGACTGCCTTTCTCCCAAAGTGATAAACCGGACAGTATCATGGACCGGTTTTCCCGGTAATCCGTATTTGCAAGGTTGGTTTCACT; site = the 11-nt target. Put shortly:
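A vector carrying a T7-inducible recombinase and the last 73 bp of the bridge RNA received, by Gibson cloning, oligos encoding a promoter, target, barcode and the first 104 bridge RNA bases under J23119. The pooled constructs entered E. coli together with a donor plasmid by electroporation. Selection used chloramphenicol/ampicillin/kanamycin with 0.1 mM IPTG, with chloramphenicol/ampicillin LB agar as the control, each in two replicates. Recombination efficiency is the averaged, control-corrected counts-per-million of barcodes at recombinant junctions, reported as log10(CPM+1).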
With “GGGTAATCTTGGGTTCTAACCTGTTGCCT (site GGGTAATCTAG)”, the “recombinant barcode read abundance (log10)” value was determined as 0.725.

In the case of “GGGTCCACTTGGGTTCTAACCTGTTGCCT (site GGGTCCACTAA)”, the “recombinant barcode read abundance (log10)” value amounted to 0.481.

Take “GGGTCCACTTGGGTTCTAACCTGTTGCCT (site GGGTCCACTAC)”: the “recombinant barcode read abundance (log10)” value stood at 0.287.

As for “GGGTCCACTTGGGTTCTAACCTGTTGCCT (site GGGTCCACTAG)”, the “recombinant barcode read abundance (log10)” value is 2.5.

Regarding “GGGTCCACTTGGGTTCTAACCTGTTGCCT (site GGGTCCACTAT)”, the “recombinant barcode read abundance (log10)” value was 0.358.

For “GGGTCCACTTGGGTTCTAACCTGTTGCTT (site GGGTCCACTAA)”, the “recombinant barcode read abundance (log10)” value was 1.51.

For the sequence “GGGTCCACTTGGGTTCTAACCTGTTGCTT (site GGGTCCACTAC)”, the “recombinant barcode read abundance (log10)” value stood at 0.139.

Regarding “GGGTCCACTTGGGTTCTAACCTGTTGCTT (site GGGTCCACTAG)”, the “recombinant barcode read abundance (log10)” value is 1.11.

Consider “GGGTCCACTTGGGTTCTAACCTGTTGCTT (site GGGTCCACTAT)”, for which the “recombinant barcode read abundance (log10)” value turned out to be 0.714.

As for “GGGTTCCCTTGGGTTCTAACCTGTTGCCT (site GGGTTCCCTAG)”, the “recombinant barcode read abundance (log10)” value worked out at 2.11.

For the sequence “GGGTTCCCTTGGGTTCTAACCTGTTGCCT (site GGGTTCGCTAG)”, the “recombinant barcode read abundance (log10)” value is 0.031.

Regarding “GGGTTCGCTTGGGTTCTAACCTGTTGCCT (site GGGTTCCCTAG)”, the “recombinant barcode read abundance (log10)” value amounted to 0.362.

Regarding “GGGTTCGCTTGGGTTCTAACCTGTTGCCT (site GGGTTCGCTAG)”, the “recombinant barcode read abundance (log10)” value came to 1.93.

Regarding “GGTAAGTCTTGGGTTCTAACCTGTTGCCT (site GGTAAATCTAG)”, the “recombinant barcode read abundance (log10)” value worked out at 0.3.

With “GGTAAGTCTTGGGTTCTAACCTGTTGCCT (site GGTAAGTCTAG)”, the “recombinant barcode read abundance (log10)” value was 0.298.

For “GGTACGACTTGGGTTCTAACCTGTTGCAG (site GGTACGACTCT)”, the “recombinant barcode read abundance (log10)” value came out at 1.04.

For the sequence “GGTACGACTTGGGTTCTAACCTGTTGCAG (site GGTACGCCTAT)”, the “recombinant barcode read abundance (log10)” value was found to be 0.336.

In the case of “GGTACGCCTTGGGTTCTAACCTGTTGCGT (site GGTACGCCTAC)”, the “recombinant barcode read abundance (log10)” value was determined as 0.248.

Turning to “GGTACGCCTTGGGTTCTAACCTGTTGCGT (site GGTACTCCTAC)”, the “recombinant barcode read abundance (log10)” value was determined as 0.213.

Turning to “GGTACTACTTGGGTTCTAACCTGTTGCCA (site ACTACTACTTG)”, the “recombinant barcode read abundance (log10)” value stood at 0.0797.

Consider “GGTACTACTTGGGTTCTAACCTGTTGCCA (site GGTACTACTTG)”, for which the “recombinant barcode read abundance (log10)” value is 0.152.

As to “GGTACTTCTTGGGTTCTAACCTGTTGCTT (site CACCACCCTCC)”, the “recombinant barcode read abundance (log10)” value turned out to be 0.157.

In the case of “GGTACTTCTTGGGTTCTAACCTGTTGCTT (site GGTACTTCTAA)”, the “recombinant barcode read abundance (log10)” value was found to be 0.152.

On to “GGTAGGCCTTGGGTTCTAACCTGTTGCTT (site GGTAGATCTAA)”, for which the “recombinant barcode read abundance (log10)” value was 0.0963.

For “GGTAGGCCTTGGGTTCTAACCTGTTGCTT (site GGTAGGCCTAA)”, the “recombinant barcode read abundance (log10)” value turned out to be 0.0588.

With “GGTATAGCTTGGGTTCTAACCTGTTGCCT (site GGTAAAGCTAG)”, the “recombinant barcode read abundance (log10)” value was found to be 0.14.

As to “GGTATAGCTTGGGTTCTAACCTGTTGCCT (site GGTATAGCTAG)”, the “recombinant barcode read abundance (log10)” value was determined as 0.827.

On to “GGTCACCCTTGGGTTCTAACCTGTTGCGG (site GGTAACCCTCC)”, for which the “recombinant barcode read abundance (log10)” value amounted to 0.0652.

On to “GGTCACCCTTGGGTTCTAACCTGTTGCGG (site GGTCACCCTCC)”, for which the “recombinant barcode read abundance (log10)” value was 1.75.

With “GGTCACCCTTGGGTTCTAACCTGTTGCGG (site GGTGACCCTCC)”, the “recombinant barcode read abundance (log10)” value is 0.0199.

As to “GGTCACCCTTGGGTTCTAACCTGTTGCGG (site GGTTACCCTCC)”, the “recombinant barcode read abundance (log10)” value was 0.16.

As to “GGTCATCCTTGGGTTCTAACCTGTTGCCT (site GGTCATACTAG)”, the “recombinant barcode read abundance (log10)” value is 0.127.

In the case of “GGTCATCCTTGGGTTCTAACCTGTTGCCT (site GGTCATCCTAG)”, the “recombinant barcode read abundance (log10)” value came out at 1.17.

In the case of “GGTCATCCTTGGGTTCTAACCTGTTGCCT (site GGTCATGCTAG)”, the “recombinant barcode read abundance (log10)” value was 0.0238.

With “GGTCATCCTTGGGTTCTAACCTGTTGCCT (site GGTCATTCTAG)”, the “recombinant barcode read abundance (log10)” value was 0.0693.

“GGTCCAACTTGGGTTCTAACCTGTTGCCT (site GGTCAAACTAG)”: the “recombinant barcode read abundance (log10)” value was 0.1.

In the case of “GGTCCAACTTGGGTTCTAACCTGTTGCCT (site GGTCCAACTAG)”, the “recombinant barcode read abundance (log10)” value was 0.32.

Turning to “GGTCCAACTTGGGTTCTAACCTGTTGCCT (site GGTCGAACTAG)”, the “recombinant barcode read abundance (log10)” value is 0.0176.

For “GGTCCAACTTGGGTTCTAACCTGTTGCCT (site GGTCTAACTAG)”, the “recombinant barcode read abundance (log10)” value turned out to be 0.159.

“GGTCCATCTTGGGTTCTAACCTGTTGCCT (site GATCCATCTAG)”: the “recombinant barcode read abundance (log10)” value came out at 0.

With “GGTCCATCTTGGGTTCTAACCTGTTGCCT (site GCTCCATCTAG)”, the “recombinant barcode read abundance (log10)” value stood at 0.0427.

“GGTCCATCTTGGGTTCTAACCTGTTGCCT (site GGTCCATCTAG)”: the “recombinant barcode read abundance (log10)” value turned out to be 0.161.

Turning to “GGTCCATCTTGGGTTCTAACCTGTTGCCT (site GTTCCATCTAG)”, the “recombinant barcode read abundance (log10)” value stood at 0.165.

As to “GGTCCGGCTTGGGTTCTAACCTGTTGCGG (site GATCCGTCTCC)”, the “recombinant barcode read abundance (log10)” value amounted to 0.0623.

“GGTCCGGCTTGGGTTCTAACCTGTTGCGG (site GGTCCGGCTCC)”: the “recombinant barcode read abundance (log10)” value is 1.61.

Take “GGTCCTGCTTGGGTTCTAACCTGTTGCCT (site AGTCCTGCTAG)”: the “recombinant barcode read abundance (log10)” value was determined as 0.366.

As for “GGTCCTGCTTGGGTTCTAACCTGTTGCCT (site CGTCCTGCTAG)”, the “recombinant barcode read abundance (log10)” value was determined as 0.0632.

“GGTCCTGCTTGGGTTCTAACCTGTTGCCT (site GGTCCTGCTAG)”: the “recombinant barcode read abundance (log10)” value is 0.976.

For “GGTCCTGCTTGGGTTCTAACCTGTTGCCT (site TGTCCTGCTAG)”, the “recombinant barcode read abundance (log10)” value stood at 0.174.

“GGTCGACCTTGGGTTCTAACCTGTTGCCT (site AGTCGACCTAG)”: the “recombinant barcode read abundance (log10)” value was determined as 0.0754.

Take “GGTCGACCTTGGGTTCTAACCTGTTGCCT (site CGTCGACCTAG)”: the “recombinant barcode read abundance (log10)” value turned out to be 0.0694.

Regarding “GGTCGACCTTGGGTTCTAACCTGTTGCCT (site GGTCGACCTAG)”, the “recombinant barcode read abundance (log10)” value is 0.898.

As to “GGTCGACCTTGGGTTCTAACCTGTTGCCT (site TGTCGACCTAG)”, the “recombinant barcode read abundance (log10)” value was determined as 0.175.

Turning to “GGTCGCCCTTGGGTTCTAACCTGTTGCGT (site GGTCGCCCTAC)”, the “recombinant barcode read abundance (log10)” value turned out to be 1.43.

In the case of “GGTCGCCCTTGGGTTCTAACCTGTTGCGT (site TCGTAGACTTA)”, the “recombinant barcode read abundance (log10)” value stood at 0.0116.

Take “GGTCGGGCTTGGGTTCTAACCTGTTGCCT (site GGTCGAGCTAG)”: the “recombinant barcode read abundance (log10)” value amounted to 0.132.

Consider “GGTCGGGCTTGGGTTCTAACCTGTTGCCT (site GGTCGCGCTAG)”, for which the “recombinant barcode read abundance (log10)” value was 0.315.

With “GGTCGGGCTTGGGTTCTAACCTGTTGCCT (site GGTCGGGCTAG)”, the “recombinant barcode read abundance (log10)” value stood at 0.401.

In the case of “GGTCGGGCTTGGGTTCTAACCTGTTGCCT (site GGTCGTGCTAG)”, the “recombinant barcode read abundance (log10)” value worked out at 0.0723.

Regarding “GGTGGGTCTTGGGTTCTAACCTGTTGCGT (site GGTGGGTCTAA)”, the “recombinant barcode read abundance (log10)” value was determined as 0.97.

On to “GGTGGGTCTTGGGTTCTAACCTGTTGCGT (site GGTGGGTCTAC)”, for which the “recombinant barcode read abundance (log10)” value was determined as 3.03.

For “GGTGGGTCTTGGGTTCTAACCTGTTGCGT (site GGTGGGTCTAG)”, the “recombinant barcode read abundance (log10)” value amounted to 1.1.

Turning to “GGTGGGTCTTGGGTTCTAACCTGTTGCGT (site GGTGGGTCTAT)”, the “recombinant barcode read abundance (log10)” value stood at 1.93.

As for “GGTTACACTTGGGTTCTAACCTGTTGCCT (site GGATACACTAG)”, the “recombinant barcode read abundance (log10)” value was found to be 0.0395.

Take “GGTTACACTTGGGTTCTAACCTGTTGCCT (site GGTTACACTAG)”: the “recombinant barcode read abundance (log10)” value came to 1.26.

With “GGTTGTTCTTGGGTTCTAACCTGTTGCCT (site GGTTGTTCTAG)”, the “recombinant barcode read abundance (log10)” value worked out at 0.19.

Consider “GGTTGTTCTTGGGTTCTAACCTGTTGCCT (site TGTTGTTCTAG)”, for which the “recombinant barcode read abundance (log10)” value was found to be 0.0976.

Take “GTAAACACTTGGGTTCTAACCTGTTGCAG (site GTAAACACTCT)”: the “recombinant barcode read abundance (log10)” value worked out at 0.514.

Take “GTAAACACTTGGGTTCTAACCTGTTGCAG (site GTAGACACTCG)”: the “recombinant barcode read abundance (log10)” value amounted to 0.113.

With “GTAACCTCTTGGGTTCTAACCTGTTGCTC (site GTAACCTCTGA)”, the “recombinant barcode read abundance (log10)” value is 2.05.

Take “GTAACCTCTTGGGTTCTAACCTGTTGCTC (site GTCACCTCTTA)”: the “recombinant barcode read abundance (log10)” value amounted to 0.00986.

Consider “GTAACTACTTGGGTTCTAACCTGTTGCTC (site ACGTAACCTAG)”, for which the “recombinant barcode read abundance (log10)” value stood at 0.0897.

Take “GTAACTACTTGGGTTCTAACCTGTTGCTC (site GTAACTACTGA)”: the “recombinant barcode read abundance (log10)” value turned out to be 0.475.

As to “GTAAGAACTTGGGTTCTAACCTGTTGCTT (site GTAAGAACTAA)”, the “recombinant barcode read abundance (log10)” value amounted to 0.629.

Take “GTAAGAACTTGGGTTCTAACCTGTTGCTT (site GTAAGCACTAA)”: the “recombinant barcode read abundance (log10)” value was 0.0763.

For “GTAAGAACTTGGGTTCTAACCTGTTGCTT (site GTAAGGACTAA)”, the “recombinant barcode read abundance (log10)” value is 0.0891.

Consider “GTAAGAACTTGGGTTCTAACCTGTTGCTT (site GTAAGTACTAA)”, for which the “recombinant barcode read abundance (log10)” value amounted to 0.03.
